As usually defined, the melting point is the temperature of the solid-liquid transition. In general, EC50 refers to the concentration at which the effect is half-maximal.

Among the data in patent US11072628B2, “Nucleoside analogues for the treatment of parasitic infections” (UNIVERSITEIT GENT, priority 2017, dated 2021) are melting point and EC50 values, retold here.

Where two headings read alike, the source gives them in different places.

Data set [1] is described as follows: Cytotoxicity against MRC-5 fibroblasts. Conditions: human, MRC-5 fibroblasts, MRC-5 EC50, Table 2; cytotoxicity. As to the method:
(§1) Cytotoxicity was assayed against MRC-5 fibroblasts. Results are depicted in Tables 4 and 5.

Data set [2] deals with T. cruzi Tulahuen CL2 β galactosidase strain. The experiment in a line: T. cruzi Tulahuen CL2 β galactosidase strain on MRC-5SV2 cells (CPRG). It is filed as cell-based, Trypanosoma cruzi. As to the method:
All cultures and assays were conducted at 37° C./5% CO2. […] The results were expressed as % reduction in parasite burdens compared to control wells from which an EC50 was calculated.

The subject of data set [3] is T. b. rhodesiense STIB-900. The experiment in a line: In vitro drug susceptibility, T. b. rhodesiense STIB-900 (resazurin). Format: cell-based, Trypanosoma brucei rhodesiense. Here is the method:
(§2) All trypanosome strains were cultured in the standard HMI-9 medium supplemented with 10% fetal bovine serum (FBS) at 37° C. in a 5% CO2 atmosphere.
A general note: Alamar Blue is a resazurin reagent that responds to reducing activity.

For a further data set, the system named is T. brucei Squib 427. Briefly: In vitro drug susceptibility, T. brucei Squib 427 (resazurin). Format: cell-based, Trypanosoma brucei brucei. Here is the method: as §2
The next data set relates to MRC-5 fibroblasts. The experiment in a line: in vitro. Here is the method:
as §1

[4] abbreviates: Trypanosoma cruzi, TULAHUEN, MRC-5 SV2, Table 2, average of 2-3 independent replicates.
The mark [5] stands for this setting: Table 1, average of 2-4 independent determinations, read-out: T. brucei rhod. EC50.
Where [6] appears, read: Table 1, average of 2-4 independent determinations, read-out: T. brucei brucei EC50.
[7] abbreviates: Table 2, average of 2-3 independent replicates.
The mark [8] stands for this setting: Table 4, average of 2-6 independent determinations, read-out: T.b. rhod. EC50.
[9] abbreviates: Table 5, average of 2-4 independent replicates.
Where [10] appears, read: Table 4, average of 2-6 independent determinations, read-out: T.b. brucei EC50.

`Nc1ncnc2c1c(-c1ccc(Cl)c(F)c1)cn2[C@@H]1O[C@H](CO)C[C@H]1O` [FH10683, 4-amino-5-(3-fluoro-4-chlorophenyl)-N7-(3′-deoxy-β-D-ribofuranosyl)-pyrrolo[2,3-d]pyrimidine] came in with a melting point of 206 °C. The compound also displayed a 50% effective concentration (EC50) in data set [1] of 18.6 µM. The compound also yielded an EC50 in data set [2] (setting [4]) of 0.07 µM.
For `Nc1ncnc2c1c(-c1ccc(F)c(Cl)c1)cn2[C@@H]1O[C@H](CO)C[C@H]1O` [FH10681, 4-amino-5-(3-chloro-4-fluorophenyl)-N7-(3′-deoxy-β-D-ribofuranosyl)-pyrrolo[2,3-d]pyrimidine] the same measures were 178 °C, 45.5 µM and 0.3 µM.
In turn, `C#Cc1cn([C@@H]2O[C@H](CO)C[C@H]2O)c2ncnc(N)c12` [FH8505, 4-amino-5-ethynyl-N7-(3′-deoxy-β-D-ribofuranosyl)-pyrrolo[2,3-d]pyrimidine] showed a melting point of 192 °C. Moreover, in data set [3] (Trypanosoma brucei, RHODESIENSE, read-out: T. brucei rhod. EC50), the EC50 is 0.0005 µM. Further, a half-maximal effect in data set [2] (setting [4]) (EC50) was put at 1.66 µM. The 50% effective concentration (EC50) in the data set with T. brucei Squib 427 (Trypanosoma brucei, read-out: T. brucei brucei EC50, Table 1, average of 2-4 independent determinations) stood at 0.005 µM.
Consider `Nc1ncnc2c1c(-c1ccc(F)cc1)cn2[C@@H]1O[C@H](CO)C[C@H]1O` [FH10680, 4-amino-5-(4-fluorophenyl)-N7-(3′-deoxy-β-D-ribofuranosyl)-pyrrolo[2,3-d]pyrimidine], for which the melting point is 186 to 187 °C. In data set [1], this compound gave an EC50 above 64 µM. In data set [2] (setting [4]), this compound displayed an EC50 of 0.64 µM.
For the compound `OC[C@@H]1C[C@@H](O)[C@H](n2ccc3c(Cl)ccnc32)O1` [FH9541, 4-chloro-N1-(3′-deoxy-β-D-ribofuranosyl)-pyrrolo[2,3-b]pyridine], the EC50 was above 64 µM with MRC-5 fibroblasts, 7.97 µM in data set [3] (setting [5]), above 64 µM in data set [2] and 31.2 µM with T. brucei Squib 427 (setting [6]).
For the compound `Nc1ncnc2c1c(SC(F)(F)F)cn2[C@@H]1O[C@H](CO)C[C@H]1O` [FH9605, 4-amino-5-trifluoromethylthio-N7-(3′-deoxy-β-D-ribofuranosyl)-pyrrolo[2,3-d]pyrimidine], the EC50 in the data set with MRC-5 fibroblasts stood at 18.6 µM; in data set [3] (setting [5]), 21 µM; in data set [2] (setting [7]) it was 26 µM; in the data set with T. brucei Squib 427 (setting [6]), 27.2 µM.
On the same counts, the results for `O=c1[nH]cnc2c1c(Br)cn2[C@@H]1O[C@H](CO)C[C@H]1O` [FH8500, 4-oxo-5-bromo-N7-(3′-deoxy-β-D-ribfuranosyl)-pyrrolo[2,3-d]pyrimidine] are above 64 µM, 2.26 µM, above 64 µM and 8.09 µM.
In the case of `Nc1ccnc2c1c(Br)cn2[C@@H]1O[C@H](CO)C[C@H]1O` [FH9549, 3-bromo-4-amino-N1-(3′-deoxy-β-D-ribofuranosyl)-pyrrolo[2,3-b]pyridine], the EC50 in the data set with MRC-5 fibroblasts is above 64 µM; in data set [3] (setting [5]), above 64 µM; in data set [2], above 64 µM; with T. brucei Squib 427 (setting [6]) it was 35.2 µM.
Regarding `COc1ccc(-c2cn([C@@H]3O[C@H](CO)C[C@H]3O)c3ncnc(N)c23)cc1Cl` [FH10645], the EC50 was above 64 µM in the data set on MRC-5 fibroblasts, 2.51 µM in data set [3] (setting [5]), 3.3 µM in data set [2] (setting [7]) and 7.13 µM in the data set with T. brucei Squib 427 (setting [6]).
Take `Cc1ccc(-c2cn([C@@H]3O[C@H](CO)C[C@H]3O)c3ncnc(N)c23)cc1C` [FH10653, 4-amino-5-(3,4-dimethylphenyl)-N7-(3′-deoxy-β-D-ribofuranosyl)-pyrrolo[2,3-d]pyrimidine]: the EC50 in the data set with MRC-5 fibroblasts is 22.3 µM; in data set [3] (setting [5]) it was 2.17 µM; in data set [2] (setting [7]) it was 1.37 µM; with T. brucei Squib 427 (setting [6]), 8.81 µM.
On the same counts, the results for `Nc1ncnc2c1c(-c1ccccc1)cn2[C@@H]1O[C@H](CO)C[C@H]1O` [FH8480, 4-amino-5-phenyl-N7-(3′-deoxy-β-D-ribofuranosyl)-pyrrolo[2,3-d]pyrimidine] are 61.8 µM, 1.2 µM, 2.57 µM and 7.9 µM.
On the same counts, the results for `CSc1ncnc2c1c(Br)cn2[C@@H]1O[C@H](CO)C[C@H]1O` [FH8510, 4-thiomethyl-5-bromo-N7-(3′-deoxy-β-D-ribofuranosyl)-pyrrolo[2,3-d]pyrimidine] are 0.29 µM, 4.34 µM, 35.8 µM and 1.68 µM.
`Nc1ncnc2c1cc(Br)n2[C@@H]1O[C@H](CO)C[C@H]1O` [FH10622, 4-amino-6-bromo-N7-(3′-deoxy-β-D-ribfuranosyl)-pyrrolo[2,3-d]pyrimidine]: the EC50 in the data set on MRC-5 fibroblasts is above 64 µM; in data set [3] (setting [5]), 1.02 µM; in data set [2] (setting [7]) it was above 64 µM; in the data set on T. brucei Squib 427 (setting [6]), 4.97 µM.
Consider `Nc1ncnc2c1c(-c1ccc3ccccc3n1)cn2[C@@H]1O[C@H](CO)[C@@H](O)[C@H]1O` [MS1017], for which the EC50 in the data set with MRC-5 fibroblasts was above 64 µM; in data set [3] (setting [8]) it was 3.72 µM; in data set [2] (setting [9]), 34.1 µM; with T. brucei Squib 427 (setting [10]), 6.45 µM.
Take `Nc1ncnc2c1c(Br)cn2[C@H]1CC[C@@H](CO)O1` [FH10638, 4-amino-5-bromo-N7-(2′,3′-dideoxy-β-D-ribofuranosyl)-pyrrolo[2,3-d]pyrimidine]: the EC50 with MRC-5 fibroblasts is 16.4 µM; in data set [3] (setting [5]), 24.4 µM; in data set [2] (setting [7]), 43.3 µM; in the data set on T. brucei Squib 427 (setting [6]) it was 57.9 µM.
On the same counts, the results for `CCSC[C@@H]1C[C@@H](O)[C@H](n2cc(Br)c3c(N)ncnc32)O1` [FH9590, 4-amino-5-bromo-N7-(3′-deoxy-5′-thio-ethyl-β-D-ribofuranosyl)-pyrrolo[2,3-d]pyrimidine] are 25.8 µM, 10.6 µM, 35.7 µM and 32.9 µM.
Take `Nc1ncnc2c1c(Cl)cn2[C@@H]1O[C@H](CO)[C@@H](O)[C@H]1O` [FH3169]: the EC50 in the data set with MRC-5 fibroblasts came out at 33.4 µM; in data set [3] (setting [8]), 0.12 µM; in data set [2] (setting [9]), 0.52 µM; in the data set with T. brucei Squib 427 (setting [10]), 1.33 µM.
Regarding `Cc1cccc(-c2cn([C@@H]3O[C@H](CO)C[C@H]3O)c3ncnc(N)c23)c1` [FH10639, 4-amino-5-(3-methylphenyl)-N7-(3′-deoxy-β-D-ribofuranosyl)-pyrrolo[2,3-d]pyrimidine], the EC50 with MRC-5 fibroblasts is above 64 µM; in data set [3] (setting [5]), 11.2 µM; in data set [2] (setting [7]) it was 5.15 µM; in the data set on T. brucei Squib 427 (setting [6]) it was 30.5 µM.
Turning to `Nc1ncnc2c1c(Br)cn2[C@@H]1OC(CO)(CO)C[C@H]1O` [FH9561, 4-amino-5-bromo-N7-(3′-deoxy-4′-hydroxymethyl-β-D-ribofuranosyl)-pyrrolo[2,3-d]pyrimidine], the EC50 in the data set on MRC-5 fibroblasts was above 64 µM; in data set [3] (setting [5]) it was 5.6 µM; in data set [2] (setting [7]), above 64 µM; with T. brucei Squib 427 (setting [6]) it was 26.8 µM.
Turning to `Nc1ncnc2c1c(-c1ccc(F)c(F)c1)cn2[C@@H]1O[C@H](CO)C[C@H]1O` [FH10682, 4-amino-5-(3,4-difluorophenyl)-N7-(3′-deoxy-β-D-ribofuranosyl)-pyrrolo[2,3-d]pyrimidine], the melting point came to 218 °C. Besides, the EC50 in data set [1] is above 64 µM. The same compound gave an EC50 in data set [2] (setting [4]) of 0.33 µM.
On to `CC(C)c1ccc(-c2cn([C@@H]3O[C@H](CO)C[C@H]3O)c3ncnc(N)c23)cc1` [FH9574, 4-amino-5-(4-isopropylphenyl)-N7-(3′-deoxy-β-D-ribofuranosyl)-pyrrolo[2,3-d]pyrimidine], for which the EC50 with MRC-5 fibroblasts is 24.9 µM; in data set [3] (setting [5]), 55.9 µM; in data set [2] (setting [7]), 8.5 µM; in the data set with T. brucei Squib 427 (setting [6]) it was above 64 µM.
Turning to `CNc1ncnc2c1c(Br)cn2[C@@H]1O[C@H](CO)C[C@H]1O` [FH8516, 4-methylamino-5-bromo-N7-(3′-deoxy-β-D-ribofuranosyl)-pyrrolo[2,3-d]pyrimidine], the EC50 in the data set on MRC-5 fibroblasts was above 64 µM; in data set [3] (setting [5]), 8.25 µM; in data set [2] (setting [7]), above 64 µM; in the data set on T. brucei Squib 427 (setting [6]), 6.21 µM.
Take `CSC[C@@H]1C[C@@H](O)[C@H](n2cc(Br)c3c(N)ncnc32)O1` [FH9527, 4-amino-5-bromo-N7-(3′-deoxy-5′-thiomethyl-β-D-ribofuranosyl)-pyrrolo[2,3-d]pyrimidine]: the concentration for a half-maximal effect (EC50) amounted to 15.3 µM in the data set on MRC-5 fibroblasts, 22.3 µM in data set [3] (setting [5]), 25 µM in data set [2] (setting [7]) and 32.5 µM in the data set on T. brucei Squib 427 (setting [6]).
For `COC[C@@H]1C[C@@H](O)[C@H](n2cc(Br)c3c(N)ncnc32)O1` [FH10626, 4-amino-5-bromo-N7-(3′-deoxy-5′-O-methyl-β-D-ribofuranosyl)-pyrrolo[2,3-d]pyrimidine] the same measures were 22.7 µM, 18.7 µM, 50.4 µM and 32 µM.
For `Nc1ncnc2c1c(-c1ccccn1)cn2[C@@H]1O[C@H](CO)C[C@H]1O` [FH8502, 4-amino-5-(pyrid-2-yl)-N7-(3′-deoxy-β-D-ribfuranosyl)-pyrrolo[2,3-d]pyrimidine] the same measures were 33.7 µM, 37.3 µM, 40.8 µM and 7.6 µM.
